In the test the target is HIS-TGFβR1 T204D (Homo sapiens (Human), UniProt P36897, T204D). The experiment in a line: HTRF probe-displacement assay, HIS-TGFβR1 T204D. Format: binding. To be noted: 1 hour at room temperature. In general terms: In TR-FRET formats the signal depends on donor and acceptor labels being close together.
Sequence of HIS-TGFβR1 T204D (P36897 34-503 T204D): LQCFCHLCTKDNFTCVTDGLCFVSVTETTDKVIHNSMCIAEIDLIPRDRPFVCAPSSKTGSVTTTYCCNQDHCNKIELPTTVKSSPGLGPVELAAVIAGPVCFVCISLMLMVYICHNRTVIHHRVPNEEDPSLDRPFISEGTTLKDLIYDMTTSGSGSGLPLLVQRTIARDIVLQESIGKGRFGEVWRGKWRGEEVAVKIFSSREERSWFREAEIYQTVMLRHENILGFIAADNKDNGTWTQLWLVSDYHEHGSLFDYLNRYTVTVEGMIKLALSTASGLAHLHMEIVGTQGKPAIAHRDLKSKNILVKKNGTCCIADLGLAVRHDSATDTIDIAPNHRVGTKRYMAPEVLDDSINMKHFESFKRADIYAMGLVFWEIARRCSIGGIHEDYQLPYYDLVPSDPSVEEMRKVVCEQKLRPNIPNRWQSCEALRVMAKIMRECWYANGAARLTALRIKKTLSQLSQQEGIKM
One may read the IC50 as the concentration needed to halve the response being measured. Low readings indicate greater potency, high ones weaker potency. The compound `CC(C)CC(=O)Nc1cc(Nc2nc(-c3cccc(C(F)(F)F)n3)nn3cccc23)ccn1` [Example 314, 3-methyl-N-[4-({2-[6-(trifluoromethyl)pyridin-2-yl]pyrrolo[2,1-f][1,2,4]triazin-4-yl}amino)pyridin-2-yl]butanamide] had an IC50 of 5.6 nM.

`O=C(NCc1ccccn1)c1cnccc1Nc1nc(-c2cccc(C(F)F)n2)nn2cccc12` [Example 181, 4-({2-[6-(difluoromethyl)pyridin-2-yl]pyrrolo[2,1-f][1,2,4]triazin-4-yl}amino)-N-(pyridin-2-ylmethyl)pyridine-3-carboxamide] yielded an IC50 of 32 nM.

On to `COc1cccc(-c2nc(Nc3ccnc(C)c3)c3cccn3n2)n1` [Example 92, N-[2-(6-methoxypyridin-2-yl)pyrrolo[2,1-f][1,2,4]triazin-4-yl]-2-methylpyridin-4-amine], for which the IC50 stood at 1500 nM.

For the compound `COc1cccc(-c2nc(Nc3ccncc3F)c3cc(CCN4CCN(C)CC4)cn3n2)n1` [Example 44, 3-fluoro-N-[2-(6-methoxypyridin-2-yl)-6-[2-(4-methylpiperazin-1-yl)ethyl]pyrrolo[2,1-f][1,2,4]triazin-4-yl]pyridin-4-amine], the IC50 came out at 1700 nM.

For the compound `Cc1cccc(-c2nc(Nc3ccncc3F)c3c(CN4CCC(F)(F)CC4)ccn3n2)n1` [Example 76, N-{5-[(4,4-difluoropiperidin-1-yl)methyl]-2-(6-methylpyridin-2-yl)pyrrolo[2,1-f][1,2,4]triazin-4-yl}-3-fluoropyridin-4-amine], the IC50 amounted to 0.25 nM.

As for `CC(=O)Nc1cc(Nc2nc(-c3ccc(F)cn3)nn3cccc23)ccn1` [Example 227, N-(4-{[2-(5-fluoropyridin-2-yl)pyrrolo[2,1-f][1,2,4]triazin-4-yl]amino}pyridin-2-yl)acetamide], the 50% inhibitory concentration (IC50) was determined as 3.6 nM.

`COc1cccc(-c2nc(Nc3ccncc3F)c3c(CCN4CCN(C)CC4)ccn3n2)n1` [Example 112, 3-fluoro-N-[2-(6-methoxypyridin-2-yl)-5-[2-(4-methylpiperazin-1-yl)ethyl]pyrrolo[2,1-f][1,2,4]triazin-4-yl]pyridin-4-amine] came in with an IC50 of 360 nM.

Take `Cn1nccc1-c1nc(Nc2ccncc2Cl)c2cccn2n1` [Example 81, 3-chloro-N-[2-(1-methyl-1H-pyrazol-5-yl)pyrrolo[2,1-f][1,2,4]triazin-4-yl]pyridin-4-amine]: the IC50 stood at 360 nM.

On to `O=C(NCCN1CCS(=O)(=O)CC1)c1cnccc1Nc1nc(-c2cccc(C(F)(F)F)n2)nn2cccc12` [Example 179, N-[2-(1,1-dioxo-1,4-thiomorpholin-4-yl)ethyl]-4-({2-[6-(trifluoromethyl)pyridin-2-yl]pyrrolo[2,1-f][1,2,4]triazin-4-yl}amino)pyridine-3-carboxamide], for which the IC50 came out at 260 nM.

Compound `CC(=O)Nc1nccc(Nc2nc(-c3cccc(C(F)(F)F)n3)nn3cccc23)c1F` [Example 20, N-[3-fluoro-4-({2-[6-(trifluoromethyl)pyridin-2-yl]pyrrolo[2,1-f][1,2,4]triazin-4-yl}amino)pyridin-2-yl]acetamide] gave an IC50 of 80 nM.

In turn, `CNC(=O)c1cc2c(Nc3ccncc3)nc(-c3cccc(C)n3)nn2c1` [Example 220, N-methyl-2-(6-methylpyridin-2-yl)-4-[(pyridin-4-yl)amino]pyrrolo[2,1-f][1,2,4]triazine-6-carboxamide] yielded an IC50 of 11 nM.

`Fc1cnccc1Nc1nc(-c2ccccn2)nn2ccc(CNCC3CCCCN3)c12` (stereo not drawn) [Example 265, 3-fluoro-N-(5-{[(piperidin-2-ylmethyl)amino]methyl}-2-(pyridin-2-yl)pyrrolo[2,1-f][1,2,4]triazin-4-yl)pyridin-4-amine]: the IC50 was determined as 6.7 nM.

For the compound `NC(=O)c1cnccc1Nc1nc(-c2cccc(C(F)F)n2)nn2cccc12` [Example 228, 4-({2-[6-(difluoromethyl)pyridin-2-yl]pyrrolo[2,1-f][1,2,4]triazin-4-yl}amino)pyridine-3-carboxamide], the IC50 stood at 1.6 nM.

Compound `COc1cccc(-c2nc(Nc3ccncc3F)c3c(CN4CCN(C)CC4)ccn3n2)n1` [Example 121, 3-fluoro-N-[2-(6-methoxypyridin-2-yl)-5-[(4-methylpiperazin-1-yl)methyl]pyrrolo[2,1-f][1,2,4]triazin-4-yl]pyridin-4-amine] came in with an IC50 of 22 nM.

On to `COc1nccc(-c2nc(Nc3ccncc3F)c3cccn3n2)n1` [Example 101, 3-fluoro-N-[2-(2-methoxypyrimidin-4-yl)pyrrolo[2,1-f][1,2,4]triazin-4-yl]pyridin-4-amine], for which the IC50 turned out to be 530 nM.

As to `Cc1nc2ccc(NCc3ccn4nc(-c5ccccn5)nc(Nc5ccncc5F)c34)cc2s1` [Example 295, N-({4-[(3-fluoropyridin-4-yl)amino]-2-(pyridin-2-yl)pyrrolo[2,1-f][1,2,4]triazin-5-yl}methyl)-2-methyl-1,3-benzothiazol-6-amine], the IC50 turned out to be 30 nM.

Compound `Fc1cnccc1Nc1nc(-c2ccccn2)nn2ccc(CNCCCN3CCOCC3)c12` [Example 246, 3-fluoro-N-[5-({[3-(morpholin-4-yl)propyl]amino}methyl)-2-(pyridin-2-yl)pyrrolo[2,1-f][1,2,4]triazin-4-yl]pyridin-4-amine] came in with a half-maximal inhibitory concentration (IC50) of 3.9 nM.

As for `COc1cccc(-c2nc(Nc3ccncc3C(F)F)c3cccn3n2)n1` [Example 15, 3-(difluoromethyl)-N-[2-(6-methoxypyridin-2-yl)pyrrolo[2,1-f][1,2,4]triazin-4-yl]pyridin-4-amine], the half-maximal inhibitory concentration (IC50) is 10 nM.

Turning to `Cc1cncc(-c2nc(Nc3ccncc3F)c3cccn3n2)n1` [Example 71, 3-fluoro-N-[2-(6-methylpyrazin-2-yl)pyrrolo[2,1-f][1,2,4]triazin-4-yl]pyridin-4-amine], the IC50 came out at 96 nM.

As to `O=C(Nc1cc(Nc2nc(-c3cccc(C(F)(F)F)n3)nn3cccc23)ccn1)[C@@H]1CCCN1` [Example 326, (2S)—N-[4-({2-[6-(trifluoromethyl)pyridin-2-yl]pyrrolo[2,1-f][1,2,4]triazin-4-yl}amino)pyridin-2-yl]pyrrolidine-2-carboxamide], the IC50 was 88 nM.

`CN1CCC(OCc2ccn3nc(-c4ccccn4)nc(Nc4ccncc4F)c23)CC1` [Example 328, 3-fluoro-N-(5-{[(1-methylpiperidin-4-yl)oxy]methyl}-2-(pyridin-2-yl)pyrrolo[2,1-f][1,2,4]triazin-4-yl)pyridin-4-amine] showed an IC50 of 13 nM.

The compound `COc1cccc(-c2nc(Nc3ccncc3F)c3cc(CNCCCN4CCS(=O)(=O)CC4)cn3n2)n1` [Example 209, 4-{3-[({4-[(3-fluoropyridin-4-yl)amino]-2-(6-methoxypyridin-2-yl)pyrrolo[2,1-f][1,2,4]triazin-6-yl}methyl)amino]propyl}-1,4-thiomorpholine-1,1-dione] showed a concentration for half-maximal inhibition (IC50) of 7700 nM.

The compound `O=C(NCCCN1CCCC1)c1cnccc1Nc1nc(-c2ccccn2)nn2cccc12` [Example 150] yielded an IC50 of 16 nM.

`COc1cccc(-c2nc(Nc3ccnc(NCCN4CCC(F)(F)CC4)c3)c3cccn3n2)n1` [Example 34, 2-N-[2-(4,4-difluoropiperidin-1-yl)ethyl]-4-N-[2-(6-methoxypyridin-2-yl)pyrrolo[2,1-f][1,2,4]triazin-4-yl]pyridine-2,4-diamine] had an IC50 of 480 nM.

Source of the values: US10336761B2, “TGFβ receptor antagonist” (BRISTOL-MYERS SQUIBB COMPANY, priority 2015, dated 2019).
